Reference: patent US7794960B2, “Predictive biomarkers in cancer therapy” (GlaxoSmithKline LLC, priority 2004, dated 2010)

Tests used:
[1] = tested on: metastatic cancers overexpressing ErbB2 and/or expressing ErbB1; assay: Clinical response (RECIST) in open-label randomized dose-cohort trial; format: in vivo, human; conditions: for Partial Response (PR), number of patients / Stable Disease (SD), number of patients: all subjects
Protocol: Clinical response was assessed after 8 weeks of therapy.
The Institutional Review Boards at the Sarah Cannon Cancer Center, University of North Carolina-Chapel Hill/Lineberger Comprehensive Cancer Center, Duke University Medical Center, and Case Western Reserve Medical Center approved this study.
Patients with a positive response to treatment (CR, PR or SD) continued on therapy with re-staging every 8 weeks thereafter. Patients were withdrawn from study upon evidence of disease progression or intolerable side effects.

p-ErbB1 = assay: Quantitative IHC of sequential tumor biopsies (Day 0 vs Day 21): p-ErbB1; format: in vivo, human; conditions: for pErbB1 % change: Day 21 vs Day 0
EGFR autophosphorylation = conditions: tumor cell lines that overexpress these receptors; cited from earlier work
[2] = tested on: ErbB2 autophosphorylation; conditions: tumor cell lines that overexpress these receptors; cited from earlier work
ErbB1 = assay: Quantitative IHC of sequential tumor biopsies (Day 0 vs Day 21): ErbB1; conditions: 900 mg/day; for ErbB1 % change: Day 21 vs Day 0
From the text: (§1) Patients were monitored by physical examination, clinical chemistry and hematology blood tests, and formally re-staged after 8 weeks of therapy. […] Response was classified as Complete Response (CR), Partial Response (PR), Stable Disease (SD) or Progressive Disease (PD). Patients with CR, PR or SD were considered to have a positive clinical response. Patients with Progressive Disease (PD) were considered to have a negative clinical response.
(§2) Biopsies were fixed in 10% neutral buffered formalin (NBF) and paraffin-embedded sections prepared. Hematoxylin and eosin (H&E) staining was used to confirm for the presence of tumor.
(§3) The VMSI “I-View” detection kit was used for all three of the VMSI pre-diluted primary antibodies. Erk1/2 (1:1200), and TGFalpha (1:20) were immunostained using the “BenchMark” with I-VIEW detection chemistry. Phospho-Erk1/2 (1:100) and p-Akt (1:75) were immunostained using a labeled streptavidin peroxidase technique. […] Slides were placed onto the Autostainer (Dako, Carpinteria, Calif.) and used the labeled streptavidin-biotin peroxidase method (LSAB2 kit, Dako) as the detection chemistry. After staining, ErbB1, ErbB2, Erk1/2, p-Akt, p-Erk1/2, p-ErbB1, p-ErbB2, cyclin D1, IGF-IR, and TGFalpha were counterstained manually with 4% ethyl green (Sigma-Aldrich). […] Investigators preparing and analyzing tissue sections were blinded to both patient tumor type and response to therapy.
(§4) Expression of ErbB1, ErbB2, p-ErbB1, p-ErbB2, Erk1/2, p-Erk1/2, Akt, p-Akt, TGFalpha, IGF-IR and cyclin D1 was assessed by IHC with automated image analysis using established assays; OD values were assigned to each specimen.
(§5) For purposes of this Example, “inhibition” of a biomarker refers to a decrease in the level of the biomarker, assessed by comparing the level detected in a Day 0 biopsy from a patient to the level detected in a Day 21 biopsy from the same patient.

ErbB2 = assay: Quantitative IHC of sequential tumor biopsies (Day 0 vs Day 21): ErbB2; conditions: 900 mg/day; for ErbB2 % change: Day 21 vs Day 0
From the text: as §1, §2, §3, §4, §5

p-Akt = assay: Quantitative IHC of sequential tumor biopsies (Day 0 vs Day 21): p-Akt; conditions: for pAkt % change: Day 21 vs Day 0; for p-Akt inhibition (Day 21 vs Day 0): PR
From the text: as §1, §2, §3, §4, §5

p-ErbB2 = assay: Quantitative IHC of sequential tumor biopsies (Day 0 vs Day 21): p-ErbB2; conditions: for pErbB2 % change: Day 21 vs Day 0
From the text: as §1, §2, §3, §4, §5

p-Erk1/2 = assay: Quantitative IHC of sequential tumor biopsies (Day 0 vs Day 21): p-Erk1/2
From the text: as §1, §2, §3, §4, §5

TGFalpha = assay: Quantitative IHC of sequential tumor biopsies (Day 0 vs Day 21): TGFalpha; conditions: 900 mg/day; for TGFa % change: Day 21 vs Day 0
From the text: as §1, §2, §3, §4, §5

cyclin D1 = assay: Quantitative IHC of sequential tumor biopsies (Day 0 vs Day 21): cyclin D1; conditions: for Cyclin D % change: Day 21 vs Day 0
From the text: as §1, §2, §3, §4, §5

tumor cells = assay: TUNEL assay of sequential tumor biopsies (Day 0 vs Day 21), tumor cell apoptosis; conditions: for TUNEL % change: Day 21 vs Day 0; for TUNEL % change / TUNEL score (percent tumor cells staining positive), Day 21: 900 mg/day
From the text: A commonly used method is TUNEL (Terminal deoxynucleotidyl Transferase Biotin-dUTP Nick End Labeling). One of the characteristics of apoptosis is the degradation of DNA after the activation of Ca/Mg dependent endonucleases. This DNA cleavage leads to strand breaks within the DNA. The TUNEL method identifies apoptotic cells in situ by using terminal deoxynucleotidyl transferase (TdT) to transfer biotin-dUTP to the free 3′-OH of cleaved DNA. The biotin-labeled cleavage sites are then visualized by reaction with fluorescein conjugated avidin (avidin-FITC).
as §1
TUNEL assay (Roche Diagnostics, Indianapolis, Ind.) was performed according to the manufacturer's instructions. Investigators preparing and analyzing tissue sections were blinded to both patient tumor type and response to therapy.
TUNEL scores represent the percent tumor cells staining positive.
For purposes of this Example, an “increase” in TUNEL score refers to an increased TUNEL score in the Day 21 biopsy, compared to the TUNEL score of the Day 0 biopsy from the same patient.
TUNEL staining is a quantitative measurement of DNA fragmentation characteristic of cellular apoptosis.

[3] = Breast, 30 enrolled, 500-1,600 mg orally once daily
[4] = Carcinoma of Unknown Primary, 5 enrolled
[5] = breast cancer patient, 900 mg/day, Progressive Disease
[6] = refractory Inflammatory Breast Cancer patient, 900 mg/day, Partial Response
[7] = additional patient with non-inflammatory metastatic breast cancer, PR, 1200 mg/d, 21 days
[8] = patient with breast cancer, PD after 8 weeks (Table 5)
[9] = patient with non-inflammatory metastatic breast cancer, PR, 900 mg/day
[10] = second patient with IBC, PR (Table 4)
[11] = breast cancer patient, Progressive Disease
[12] = refractory Inflammatory Breast Cancer patient, Partial Response
[13] = first patient with IBC, PR, 650 mg/d, 21 days

For `CS(=O)(=O)CCNCc1ccc(-c2ccc3ncnc(Nc4ccc(OCc5cccc(F)c5)c(Cl)c4)c3c2)o1` [lapatinib], the “Partial responses (PR), number of patients” value ([1]; 33 patients with sequential tumor biopsies, breast cancer) was 4, the “Disease stabilization (SD), number of patients” value ([1]; 33 patients with sequential tumor biopsies, various malignancies) was 11 and the “Partial Response (PR), number of patients” value (“Partial Response (PR)” for short) [1, 3] was 4. For the same compound, the “Stable Disease (SD), number of patients” value [1, 3] was 10, the “Partial Response (PR)” value [1, 4] was 0 and the “Stable Disease (SD), number of patients” value [1, 4] was 5. For the same compound, the “Partial Response (PR)” value ([1]; Colon, 7 enrolled) was 0, the “Stable Disease (SD), number of patients” value ([1]; Colon, 7 enrolled) was 2 and the “Partial Response (PR)” value ([1]; Head and Neck, 5 enrolled) was 0. The “Stable Disease (SD), number of patients” value ([1]; Head and Neck, 5 enrolled) was 3, the “Partial Response (PR)” value ([1]; Lung, 11 enrolled) was 0 and the “Stable Disease (SD), number of patients” value ([1]; Lung, 11 enrolled) was 6. For the same compound, the “Partial Response (PR)” value ([1]; Other tumor types, 5 enrolled) was 0, the “Stable Disease (SD), number of patients” value ([1]; Other tumor types, 5 enrolled) was 4 and the “Partial Response (PR)” value ([1]; Ovarian, 4 enrolled) was 0. The “Stable Disease (SD), number of patients” value ([1]; Ovarian, 4 enrolled) was 2, the “Partial Response (PR)” value ([1]; Total, 67 enrolled) was 4 and the “Stable Disease (SD), number of patients” value ([1]; Total, 67 enrolled) was 32. The “Number of patients with Partial Response” value ([1]; dose 650 mg/day) was 1, the “Number of patients with Partial Response” value ([1]; dose 900 mg/day) was 1 and the “Number of patients with Partial Response” value ([1]; dose 1200 mg/day) was 2. For the same compound, the “Response Duration, median” value ([1]; patients with Partial Response) was 5+ months, the pErbB1 % change (p-ErbB1; [5]) was −81% and the pErbB1 % change (p-ErbB1; [6]) was −80%. For the same compound, the “p-ErbB1 inhibition (Day 21 vs Day 0)” value (p-ErbB1; [7]) was “not associated with any appreciable inhibition”, the “pErbB1 (IHC OD value), Day 21” value (p-ErbB1; [5]) was 3 and the “p-ErbB1 inhibition (Day 21 vs Day 0)” value (p-ErbB1; [8]) was 81%. The “p-ErbB1 inhibition (Day 21 vs Day 0)” value (p-ErbB1; [9]) was 31%, the “pErbB1 (IHC OD value), Day 21” value (p-ErbB1; [6]) was 1 and the “p-ErbB1 inhibition (Day 21 vs Day 0)” value (p-ErbB1; [10]) was 80%. The EGFR autophosphorylation (EGFR autophosphorylation) was “inhibits”, the ErbB2 autophosphorylation [2] was “inhibits” and the ErbB1 % change (ErbB1; [11]) was “+35%”. For the same compound, the ErbB1 % change (ErbB1; [12]) was −9%, the “ErbB1 (IHC OD value), Day 21” value (ErbB1; [11]) was 19 and the “ErbB1 (IHC OD value), Day 21” value (ErbB1; [12]) was 32. The ErbB2 % change (ErbB2; [11]) was −27%, the ErbB2 % change (ErbB2; [12]) was −7% and the “ErbB2 (IHC OD value), Day 21” value (ErbB2; [11]) was 32. The “ErbB2 (IHC OD value), Day 21” value (ErbB2; [12]) was 65, the pAkt % change (p-Akt; [5]) was −8% and the pAkt % change (p-Akt; [6]) was −0%. For the same compound, the “p-Akt inhibition (Day 21 vs Day 0)” value (p-Akt; additional patient with non-inflammatory metastatic breast cancer, 1200 mg/d, 21 days) was 34%, the “pAkt (IHC OD value), Day 21” value (p-Akt; [5]) was 33 and the “p-Akt inhibition (Day 21 vs Day 0)” value (p-Akt; first patient with IBC, 650 mg/d, 21 days) was 90%. For the same compound, the “p-Akt change (Day 21 vs Day 0)” value (p-Akt; [8]) was “essential unchanged”, the “p-Akt inhibition (Day 21 vs Day 0)” value (p-Akt; patient with non-inflammatory metastatic breast cancer, 900 mg/day) was 44% and the “pAkt (IHC OD value), Day 21” value (p-Akt; [6]) was 20. The “p-Akt change (Day 21 vs Day 0)” value (p-Akt; [10]) was “essentially unchanged”, the pErbB2 % change (p-ErbB2; [5]) was 0% and the pErbB2 % change (p-ErbB2; [6]) was −83%. For the same compound, the “p-ErbB2 inhibition (Day 21 vs Day 0)” value (p-ErbB2; [7]) was “not associated with any appreciable inhibition”, the “pErbB2 (IHC OD value), Day 21” value (p-ErbB2; [5]) was 3 and the “p-ErbB2 inhibition (Day 21 vs Day 0)” value (p-ErbB2; [13]) was 72%. The “p-ErbB2 change (Day 21 vs Day 0)” value (p-ErbB2; [9]) was “remained unchanged”, the “pErbB2 (IHC OD value), Day 21” value (p-ErbB2; [6]) was 5 and the “p-ErbB2 inhibition (Day 21 vs Day 0)” value (p-ErbB2; [10]) was 83%. For the same compound, the “p-Erk1/2 inhibition (Day 21 vs Day 0)” value (p-Erk1/2; [7]) was “complete inhibition”, the “p-Erk1/2 inhibition (Day 21 vs Day 0)” value (p-Erk1/2; [8]) was 87% and the “p-Erk1/2 inhibition (Day 21 vs Day 0)” value (p-Erk1/2; [9]) was “completely inhibited”. For the same compound, the “p-Erk1/2 inhibition (Day 21 vs Day 0)” value (p-Erk1/2; [10]) was 68%, the TGFa % change (TGFalpha; [11]) was −53% and the TGFa % change (TGFalpha; [12]) was −61%. The “TGFa (IHC OD value), Day 21” value (TGFalpha; [11]) was 23, the “TGFa (IHC OD value), Day 21” value (TGFalpha; [12]) was 21 and the “Cyclin D % change” value (cyclin D1; [5]) was −76%. The “Cyclin D % change” value (cyclin D1; [6]) was −57%, the “cyclin D inhibition (Day 21 vs Day 0)” value (cyclin D1; [7]) was 90% and the “Cyclin D (IHC OD value), Day 21” value (cyclin D1; [5]) was 10. For the same compound, the “cyclin D1 inhibition (Day 21 vs Day 0)” value (cyclin D1; [13]) was 49%, the “cyclin D1 inhibition (Day 21 vs Day 0)” value (cyclin D1; [8]) was 76% and the “cyclin D1 inhibition (Day 21 vs Day 0)” value (cyclin D1; [9]) was 90%. For the same compound, the “Cyclin D (IHC OD value), Day 21” value (cyclin D1; [6]) was 12, the “cyclin D1 inhibition (Day 21 vs Day 0)” value (cyclin D1; [10]) was 57% and the TUNEL % change (tumor cells; [11]) was 0%. The TUNEL % change (tumor cells; [12]) was “+2400%”, the “Percentage of tumor cells stained positive by TUNEL, Day 21 vs Day 0” value (tumor cells; all four patients achieving Partial Response) was “markedly increased” and the “TUNEL score (percent tumor cells staining positive), Day 21” value (tumor cells; [11]) was 0. The “TUNEL score, Day 21 vs Day 0” value (tumor cells; patient with ErbB1-overexpressing head and neck carcinoma, tumor regression after 8 weeks not qualifying as PR) was “increased”, the “TUNEL score, Day 21 vs Day 0” value (tumor cells; [8]) was “did not show an increase” and the “TUNEL score, Day 21 vs Day 0” value (tumor cells; patients with PD at 8 weeks) was “did not increase”. For the same compound, the “TUNEL score (percent tumor cells staining positive), Day 21” value (tumor cells; [12]) was 72.
